In paper PMC7230911, “Meroterpenoids from the Brown Alga Cystoseira usneoides as Potential Anti-Inflammatory and Lung Anticancer Agents” (Marine Drugs, 2020):

What was measured:
COX-2 = COX-2 protein expression in LPS-stimulated THP-1 macrophages (western blot); assay type: cell-based, human; details: 1 h pretreatment, then LPS 1 μg/mL 24 h
Protocol: COX-2 is the key enzyme regulating the production of prostaglandins, which are the central mediators of inflammation. On the other hand, iNOS enzyme represents an important molecular target closely involved in inflammatory responses. Thus, the effect of the AMTs 1–8 on LPS-induced COX-2 and iNOS protein expression was investigated by western blot analysis.
Figure 3 Effect of meroterpenoids 1–8 on LPS-induced COX-2 and iNOS protein expression in THP-1 macrophages. Cells were pretreated for 1 h with the compounds (1, 2, 3, 4, 7, and 8 at 8 μg/mL; 5 and 6 at 4 μg/mL) and then stimulated with LPS (1 μg/mL). Cytosolic lysates from 24 h-stimulated cells were separated on 10% SDS-PAGE. COX-2, iNOS, and β-actin were detected by western blot analysis. Data are expressed as means ± SE from three independent experiments. Statistical significance is indicated (+++ p < 0.001 and ++ p < 0.01, vs. Control, respectively; * p < 0.05, and ** p < 0.01 vs. Control + LPS).
Western blotting was used to measure the protein levels of COX-2 and iNOS [65]. THP-1 macrophages were plated at a density of 1 × 10^6 cells/mL in six-well plates, treated for 1 h with compounds 1–8 (8 μg/mL for compounds 1, 2, 3, 4, 7, and 8, and 4 μg/mL for compounds 5 and 6), and then stimulated with 1 μg/mL of LPS in medium at 37 °C. After 24 h, the cells were washed with ice-cold PBS, collected, suspended in the lysis buffer (250 mM NaCl, 50 mM Tris (pH 7.5), 0.5 mM EDTA, 5 mM EGTA, 8 mM MgCl2, 1 mM PMSF, 0.01 mg/mL pepstatin A, 0.01 mg/mL leupeptin, 0.01 mg/mL aprotinin, 1% Triton X-100) and centrifuged at 12,000× g at 4 °C for 3 min to yield cell lysates. Proteins concentration in cell lysates was determined by Bio-Rad Protein Assay, based on the method of Bradford (BioRad, Richmond CA, USA). Cytosolic proteins (50 μg) were separated with 10% SDS-polyacrylamide gel electrophoresis and transferred on PVDF membranes. The membranes were then blocked with 5% (w/v) non-fat dry milk in Tris-buffered saline containing 0.1% Tween-20 (pH 7.4) (TBST) buffer at room temperature for 1 h. The membranes were washed three times (10 min) in TBST buffer and incubated with specific primary antibodies anti-COX-2 (1:3000) or anti-iNOS (1:1000) diluted in 5% (w/v) non-fat dry milk in TBST buffer, at 4 °C overnight. Then, the membranes were incubated with peroxidase-conjugated […] goat anti-rabbit IgG (1: 1000) for 1 h at room temperature. To ascertain that blots were loaded with equal amounts of protein lysates, they were also incubated in the presence of the antibody against β-actin protein (1:10,000). After washing the membrane again with TBST buffer (10 min) three times, the antibody was visualized using an enhanced chemiluminescence light-detecting kit (Super-Signal West Pico Chemiluminescent Substrate, Pierce, IL, USA), according to the manufacturer’s instructions and exposed to an X-ray film (GE Healthcare Ltd., Amersham, UK). The protein band densities were quantified using a Scientific Imaging Systems (Biophotonics ImageJ Analysis Software, National Institute of Mental Health, Bethesda, MD, USA).

A549 cells = test: Cell cycle analysis of A549 cells by flow cytometry; assay type: cell-based, human; details: IC50 concentration, 24 h; for cells at S phase: control 4.99%; for cells at G2/M phase: control 14.06%
Protocol: We next investigated whether the treatment with AMTs 1–8 caused any cell cycle-related event, which inhibit the viability of A549 cell line. Thus, the cells were treated for 24 h with the AMTs at concentrations of IC50 (Table 1), or with colchicine (at 0.2 μg/mL) as the positive control, and then subjected to flow cytometry analysis to evaluate the distribution of cells in the different phases of the cell cycle (Figure 5A).
Figure 5 Effects of meroterpenoids 1–8 on cell cycle distribution of A549 cells. Cells were incubated with IC50 doses of the compounds for 24 h. (A) Cells were harvested to measure the cell cycle distribution by flow cytometry. (B) Quantitative analysis of cell cycle distribution after treatment. Data represent mean ±SE from three independent experiments. * p < 0.05, ** p < 0.01, and *** p < 0.001 compared with the untreated group (control).
For cell cycle analysis by flow cytometry, A549 cells were seeded at 1 × 10^6 cells/well in 6-well plates and incubated for 24 h followed by treatment with the AMTs, at concentration of IC50, and further incubation for 24 h. Colchicine (final concentration of 0.2 μg/mL) was used as positive control. Cells were harvested after trypsinization and washed once with PBS. Then, the cells were centrifuged at 1500 rpm for 5 min (25 °C), the pellet was fixed with 1 mL of ice-cold 70% ethanol, and the samples were stored at −4 °C overnight. Then the cells were washed with PBS and incubated in the darkness with PBS containing 5 mg/mL of RNase A for 48 h at 4 °C. Subsequently, 50 µL of propidium iodide (0.1 mg/mL) was added and the cells were incubated for 1 h at 4 °C. The relative DNA content per cell was analyzed using a Beckman Coulter Cytomics FC 500 MPL (Beckman Coulter Inc, San Diego, CA, USA). The data acquisition was performed with the DML program. The analysis of the acquired data was performed with the CXP cytometer.

SMILES	effect on expression of COX-2 (in words) (COX-2; 8 μg/mL)	cells at S phase (A549 cells)	cells at G2/M phase (A549 cells)	decrease of COX-2 levels (COX-2; 8 μg/mL)	decrease of COX-2 levels (COX-2; 4 μg/mL)	cells at G0/G1 phase (A549 cells; control 71.40%)
COc1c(C)cc(O)cc1C/C=C(\C)CC(=O)/C=C(/C)CCCC(C)(O)C(=O)/C=C/C(C)(C)O (centres unmarked) [Compound 1, usneoidone Z]	no significant effect	17.75%	31.15%	–	–	–
COc1c(C)cc(O)cc1C/C=C(\C)CC(=O)/C=C(\C)CCCC(C)(O)C(=O)/C=C/C(C)(C)O (centres unmarked) [Compound 2, 11-hydroxy-1’-O-methylamentadione]	significantly down-regulated	17.90%	31.62%	–	–	–
COc1c(C)cc(O)cc1C/C=C(\C)CC(=O)/C=C(\C)CCCC(C)=O [Compound 3, cystomexicone B]	–	–	–	53.35%	–	–
COc1c(C)cc(O)cc1C/C=C(\C)CC(=O)/C=C(/C)CCCC(C)=O [Compound 4, cystomexicone A]	significantly down-regulated	–	–	–	–	–
COc1c(C)cc(O)cc1C/C=C(\C)CC(=O)/C=C(/C)CCCC(C)C(=O)/C=C/C(C)(C)O (stereo not drawn) [Compound 5, 6-cis-amentadione-1′-methyl ether]	–	–	–	–	53.52%	–
COc1c(C)cc(O)cc1C/C=C(\C)CC(=O)/C=C(\C)CCCC(C)C(=O)/C=C/C(C)(C)O (centres unmarked) [Compound 6, amentadione-1′-methyl ether]	–	–	–	–	64.23%	–
COc1c(C)cc(O)cc1/C=C/C(C)(O)CC(=O)/C=C(/C)CCCC(C)C(=O)/C=C/C(C)(C)O (centres unmarked) [Compound 7, cystodione A]	–	13.69%	40.19%	58.05%	–	49.31%
COc1c(C)cc(O)cc1/C=C/C(C)(O)CC(=O)/C=C(\C)CCCC(C)C(=O)/C=C/C(C)(C)O (centres unmarked) [Compound 8, cystodione B]	no significant effect	16.73%	32.50%	–	–	–
